For test [1], the target named is T1, system Xc^− (Homo sapiens, UniProt Q9UPY5).
T1 sequence (Q9UPY5 1-501): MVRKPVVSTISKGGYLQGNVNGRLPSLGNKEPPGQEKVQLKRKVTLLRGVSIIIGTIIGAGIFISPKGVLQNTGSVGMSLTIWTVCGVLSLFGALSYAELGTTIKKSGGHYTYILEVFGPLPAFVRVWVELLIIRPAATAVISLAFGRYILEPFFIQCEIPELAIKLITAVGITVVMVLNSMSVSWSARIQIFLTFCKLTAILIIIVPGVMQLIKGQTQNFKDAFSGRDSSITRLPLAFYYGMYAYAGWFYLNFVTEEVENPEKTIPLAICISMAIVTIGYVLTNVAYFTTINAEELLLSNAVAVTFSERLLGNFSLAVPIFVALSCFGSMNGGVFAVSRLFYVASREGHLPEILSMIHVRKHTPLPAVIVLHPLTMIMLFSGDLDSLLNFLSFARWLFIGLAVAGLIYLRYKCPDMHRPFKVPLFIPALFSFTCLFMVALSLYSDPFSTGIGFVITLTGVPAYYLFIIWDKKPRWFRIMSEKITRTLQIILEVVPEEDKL
T1 sequence (P08195 1-529 partner): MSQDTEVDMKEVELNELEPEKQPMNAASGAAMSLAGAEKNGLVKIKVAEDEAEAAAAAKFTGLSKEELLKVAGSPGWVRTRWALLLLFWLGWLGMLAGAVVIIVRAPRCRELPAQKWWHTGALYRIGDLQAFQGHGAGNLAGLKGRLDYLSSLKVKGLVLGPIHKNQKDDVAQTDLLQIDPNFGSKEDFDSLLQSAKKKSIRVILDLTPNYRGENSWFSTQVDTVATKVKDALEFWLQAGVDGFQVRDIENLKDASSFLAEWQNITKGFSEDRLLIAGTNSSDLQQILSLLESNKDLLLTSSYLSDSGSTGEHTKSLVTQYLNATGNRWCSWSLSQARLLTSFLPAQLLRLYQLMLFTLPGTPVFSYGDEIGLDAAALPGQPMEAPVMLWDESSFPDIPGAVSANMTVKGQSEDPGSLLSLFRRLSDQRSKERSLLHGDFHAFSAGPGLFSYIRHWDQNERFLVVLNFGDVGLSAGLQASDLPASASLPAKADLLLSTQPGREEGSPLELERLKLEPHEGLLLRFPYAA
The experiment in a line: Cystine-induced glutamate release assay. The arrangement: endogenous in cells; host or cells: H4 cells. In kind it is cell-based. The following applies: H4 cells, sodium-free HEPES buffer, 50 μM L-Cystine, 2 hours, Amplex Red glutamate readout; read-out: pIC50 Cystine-induced glutamate release assay (converted). The method, boiled down: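 IC50 (reported as pIC50) normalized to DMSO 1% and Erastin 50 μM controls, from Amplex Red fluorescence of glutamate exported into supernatant. H4 cells were washed into sodium-free buffer to exclude EAAT transport, then given compound with 50 μM L-cystine for 2 h in the incubator.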

Test [2] has as its target T1, system Xc^−. Briefly: [^14C]L-Cystine uptake assay. In kind it is cell-based. The arrangement: endogenous in cells; host or cells: H4 cells. As to conditions: H4 cells, sodium-free HEPES buffer, 0.5 μM L-[14C]Cystine and 4.5 μM L-Cystine, 1 hour at 37° C.; read-out: pIC50 [^14C] L-Cystine uptake assay (converted). The essentials: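 Compound effect is given as pIC50, taken between controls of 1% DMSO and 50 μM Erastin. Human H4 cells were pretreated 15 min with compound in sodium-free buffer, then took up 0.5 μM [14C]cystine with 4.5 μM cold cystine for 1 hour at 37° C, read by scintillation proximity counting.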

For `Cc1cc2c(c(Cl)n1)-c1ccnnc1C(C)C(=O)N2CC(=O)Nc1ccc(Cl)c(F)c1` (single isomer, unassigned) [#258, 2-[3-chloro-5,10-dimethyl-9-oxo-4,8,12,13-tetrazatricyclo[9.4.0.0^2,7]pentadeca-1(15),2,4,6,11,13-hexaen-8-yl]-N-(4-chloro-3-fluoro-phenyl)acetamide], the IC50 in test [1] and in test [2] was less than 15.8 nM each time.
As to `Cc1cc2c(c(F)n1)-c1cnccc1C(C)C(=O)N2CC(=O)Nc1ccc(C(F)F)cc1` (single isomer, unassigned) [#259, N-[4-(difluoromethyl)phenyl]-2-[3-fluoro-5,10-dimethyl-9-oxo-4,8,14-triazatricyclo[9.4.0.0^2,7]pentadeca-1(15),2,4,6,11,13-hexaen-8-yl]acetamide], the IC50 in test [1] and in test [2] was less than 15.8 nM each time.
For the molecule `Cc1cc2c(c(F)n1)-c1cc(F)cnc1[C@H](C)C(=O)N2CC(=O)Nc1ccc(Cl)c(F)c1` (single isomer, unassigned) [#260], the IC50 in test [1] and in test [2] was less than 15.8 nM each time.
Turning to `Cc1cc2c(c(F)n1)-c1cc(F)cnc1C(C)C(=O)N2CC(=O)Nc1ccc(C(F)F)cc1` (single isomer, unassigned) [#261, N-[4-(difluoromethyl)phenyl]-2-[3,14-difluoro-5,10-dimethyl-9-oxo-4,8,12-triazatricyclo[9.4.0.0^2,7]pentadeca-1(11),2(7),3,5,12,14-hexaen-8-yl]acetamide], the IC50 in test [1] and in test [2] was less than 15.8 nM throughout.
For `Cc1cc2c(c(F)n1)-c1cc(F)cnc1C(C)C(=O)N2CC(=O)Nc1ccc(C(F)(F)F)nc1` (single isomer, unassigned) [#262, 2-[3,14-difluoro-5,10-dimethyl-9-oxo-4,8,12-triazatricyclo[9.4.0.0^2,7]pentadeca-1(11),2(7),3,5,12,14-hexaen-8-yl]-N-[6-(trifluoromethyl)-3-pyridyl]acetamide], the IC50 in test [1] and in test [2] was 15.8 to 39.8 nM each time.
For the molecule `Cc1cc2c(c(F)n1)-c1cc(F)cnc1C(C)C(=O)N2CC(=O)Nc1ccc(C(C)(F)F)cc1` (single isomer, unassigned) [#263, 2-[3,14-difluoro-5,10-dimethyl-9-oxo-4,8,12-triazatricyclo[9.4.0.0^2,7]pentadeca-1(15),2,4,6,11,13-hexaen-8-yl]-N-[4-(1,1-difluoroethyl)phenyl]acetamide], the IC50 in test [1] and in test [2] was less than 15.8 nM throughout.
For `CC1C(=O)N(CC(=O)Nc2ccc(Cl)c(F)c2)c2cc(N(C)CCN(C)C)nc(F)c2-c2cccnc21` (single isomer, unassigned) [#266, N-(4-chloro-3-fluoro-phenyl)-2-[5-[2-(dimethylamino)ethyl-methyl-amino]-3-fluoro-10-methyl-9-oxo-4,8,12-triazatricyclo[9.4.0.0^2,7]pentadeca-1(15),2,4,6,11,13-hexaen-8-yl]acetamide], the IC50 in test [1] and in test [2] was 15.8 to 39.8 nM in each case.
As for `CC1C(=O)N(CC(=O)Nc2ccc(Cl)c(F)c2)c2cc(N3CC4(CC4)C3)nc(F)c2-c2cccnc21` (single isomer, unassigned) [#267, 2-[5-(5-azaspiro[2.3]hexan-5-yl)-3-fluoro-10-methyl-9-oxo-4,8,12-triazatricyclo[9.4.0.0^2,7]pentadeca-1(15),2,4,6,11,13-hexaen-8-yl]-N-(4-chloro-3-fluoro-phenyl)acetamide], the values for the IC50 in test [1] and in test [2] were 15.8 to 39.8 nM and 39.8 to 100 nM, respectively.
In the case of `CC1C(=O)N(CC(=O)Nc2ccc(Cl)c(F)c2)c2cc(N3CC(F)(F)C3)nc(F)c2-c2cccnc21` (single isomer, unassigned) [#268, N-(4-chloro-3-fluoro-phenyl)-2-[5-(3,3-difluoroazetidin-1-yl)-3-fluoro-10-methyl-9-oxo-4,8,12-triazatricyclo[9.4.0.0^2,7]pentadeca-1(15),2,4,6,11,13-hexaen-8-yl]acetamide], the IC50 in test [1] and in test [2] was less than 15.8 nM throughout.
Consider `CC1C(=O)N(CC(=O)Nc2ccc(Cl)c(F)c2)c2cc(N3[C@@H]4CCC[C@H]3C4)nc(F)c2-c2cccnc21` (single isomer, unassigned) [#269, 2-[5-(6-azabicyclo[3.1.1]heptan-6-yl)-3-fluoro-10-methyl-9-oxo-4,8,12-triazatricyclo[9.4.0.0^2,7]pentadeca-1(11),2(7),3,5,12,14-hexaen-8-yl]-N-(4-chloro-3-fluoro-phenyl)acetamide], for which the IC50 in test [1] and in test [2] was 39.8 to 100 nM in each case.
Consider `CC1C(=O)N(CC(=O)Nc2ccc(Cl)c(F)c2)c2cc(N3CC4(C3)CC4(F)F)nc(F)c2-c2cccnc21` (single isomer, unassigned) [#270, N-(4-chloro-3-fluoro-phenyl)-2-[5-(2,2-difluoro-5-azaspiro[2.3]hexan-5-yl)-3-fluoro-10-methyl-9-oxo-4,8,12-triazatricyclo[9.4.0.0^2,7]pentadeca-1(15),2,4,6,11,13-hexaen-8-yl]acetamide], for which the IC50 in test [1] and in test [2] was 39.8 to 100 nM each time.
Consider `CC1C(=O)N(CC(=O)Nc2ccc(C(F)F)cc2)c2cc(N3CC(F)C3)nc(F)c2-c2cccnc21` (single isomer, unassigned) [#274, N-[4-(difluoromethyl)phenyl]-2-[3-fluoro-5-(3-fluoroazetidin-1-yl)-10-methyl-9-oxo-4,8,12-triazatricyclo[9.4.0.0^2,7]pentadeca-1(15),2,4,6,11,13-hexaen-8-yl]acetamide], for which the IC50 in test [1] and in test [2] was less than 15.8 nM throughout.
As for `CC1C(=O)N(CC(=O)Nc2ccc(C(F)F)cc2)c2cc(N3CC(C)(O)C3)nc(F)c2-c2cccnc21` (single isomer, unassigned) [#275, N-[4-(difluoromethyl)phenyl]-2-[3-fluoro-5-(3-hydroxy-3-methyl-azetidin-1-yl)-10-methyl-9-oxo-4,8,12-triazatricyclo[9.4.0.0^2,7]pentadeca-1(15),2,4,6,11,13-hexaen-8-yl]acetamide], the IC50 in test [1] and in test [2] was less than 15.8 nM each time.
Consider `C[C@@H]1C(=O)N(CC(=O)Nc2ccc(C(F)F)cc2)c2cc(N3CC[C@@H](F)C3)nc(F)c2-c2cccnc21` (single isomer, unassigned) [#276, N-[4-(difluoromethyl)phenyl]-2-[3-fluoro-5-[3-fluoropyrrolidin-1-yl]-10-methyl-9-oxo-4,8,12-triazatricyclo[9.4.0.0^2,7]pentadeca-1(15),2,4,6,11,13-hexaen-8-yl]acetamide], for which the IC50 in test [1] and in test [2] was less than 15.8 nM in each case.
For the molecule `C[C@@H]1C(=O)N(CC(=O)Nc2ccc(C(F)F)cc2)c2cc(N3CC[C@@H](F)C3)nc(F)c2-c2cccnc21` (single isomer, unassigned) [#277, N-[4-(difluoromethyl)phenyl]-2-[3-fluoro-5-[3-fluoropyrrolidin-1-yl]-10-methyl-9-oxo-4,8,12-triazatricyclo[9.4.0.0^2,7]pentadeca-1(15),2,4,6,11,13-hexaen-8-yl]acetamide], the IC50 in test [1] and in test [2] was 15.8 to 39.8 nM throughout.
For `CC1C(=O)N(CC(=O)Nc2ccc(C(F)F)cc2)c2cc(N3CCC(F)(F)C3)nc(F)c2-c2cccnc21` (single isomer, unassigned) [#278, N-[4-(difluoromethyl)phenyl]-2-[5-(3,3-difluoropyrrolidin-1-yl)-3-fluoro-10-methyl-9-oxo-4,8,12-triazatricyclo[9.4.0.0^2,7]pentadeca-1(15),2,4,6,11,13-hexaen-8-yl]acetamide], the figures for the IC50 in test [1] and in test [2] were 39.8 to 100 nM and 15.8 to 39.8 nM, respectively.

The values are drawn from patent US20260217708A1, “FUSED BENZAZEPINE DERIVATIVES FOR USE IN THE TREATMENT OF CANCER AND EPILEPSY” (UCB BIOPHARMA SRL, priority 2023, published 2026).
